Source: PMC4931022, “Arginine demethylation is catalysed by a subset of JmjC histone lysine demethylases” (Nature Communications, 2016)

Key:
Format in all cases: biochemical
[1] = target: T1, KDM5C (Homo sapiens, UniProt P41229); experiment: MALDI MS activity assay, recombinant KDM5C catalytic domain; conditions: peptide 10 μM, 1 h, 37 °C, MALDI-TOF MS; for demethylation, in words: KDM5C catalytic domain 2 μM; for observed arginine demethylation activity: KDM5C 2 μM, 2OG 100 μM, ascorbate 100 μM, Fe(II) 10 μM, 50 mM HEPES pH 7.5, −14 Da shift
T1 construct: KDM5C1–765 was produced as an N-terminally His6-tagged protein in Sf9 cells; His6 (N); made in house; host or cells: Sf9 cells (provided by the Structural Genomics Consortium)
T1 sequence (P41229 1-765): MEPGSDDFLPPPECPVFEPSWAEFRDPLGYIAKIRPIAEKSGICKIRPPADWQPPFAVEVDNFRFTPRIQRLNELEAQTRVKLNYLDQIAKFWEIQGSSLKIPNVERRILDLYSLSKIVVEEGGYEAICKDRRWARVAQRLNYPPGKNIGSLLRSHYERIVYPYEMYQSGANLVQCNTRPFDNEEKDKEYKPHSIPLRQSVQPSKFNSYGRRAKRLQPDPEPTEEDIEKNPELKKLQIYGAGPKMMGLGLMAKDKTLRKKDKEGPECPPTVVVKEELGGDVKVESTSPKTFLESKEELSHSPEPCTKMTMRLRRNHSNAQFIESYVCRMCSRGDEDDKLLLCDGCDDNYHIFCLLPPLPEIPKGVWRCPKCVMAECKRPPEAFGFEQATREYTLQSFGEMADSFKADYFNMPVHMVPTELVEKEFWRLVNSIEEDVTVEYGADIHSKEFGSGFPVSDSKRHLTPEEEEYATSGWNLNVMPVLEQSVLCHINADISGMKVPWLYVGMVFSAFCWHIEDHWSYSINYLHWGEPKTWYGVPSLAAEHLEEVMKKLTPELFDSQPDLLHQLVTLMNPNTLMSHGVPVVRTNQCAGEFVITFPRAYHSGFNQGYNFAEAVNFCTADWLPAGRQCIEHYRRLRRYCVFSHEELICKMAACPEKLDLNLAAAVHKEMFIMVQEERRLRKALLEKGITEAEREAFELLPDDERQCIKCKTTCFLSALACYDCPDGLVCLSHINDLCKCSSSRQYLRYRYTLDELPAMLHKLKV
Method: (§1) MALDI MS activity assays. Recombinant proteins (2 μM) were incubated with peptides (10 μM, sequences are given in Supplementary Table 1) and cofactors/substrates for 1 h at 37 °C, unless otherwise specified. Reactions were quenched with 1:1 (v/v) methanol and analysed with MALDI MS. Assay conditions for each enzyme are given in Supplementary Table 2. Negative controls without enzyme were included.
(§2) Supplementary Table 2 Assay conditions with truncated recombinant protein. […]

[2] = target: T2, KDM4E (Homo sapiens, UniProt B2RXH2); experiment: MALDI MS activity assay, recombinant KDM4E catalytic domain; conditions: peptide 10 μM, 1 h, 37 °C, MALDI-TOF MS; for demethylation, in words: KDM4E catalytic domain 2 μM; for observed arginine demethylation activity: KDM4E 2 μM, 2OG 200 μM, ascorbate 100 μM, Fe(II) 10 μM, 50 mM HEPES pH 7.5, −14 Da shift
T2 construct: His6 (N); made in house; host or cells: Escherichia coli
T2 sequence (B2RXH2 1-337): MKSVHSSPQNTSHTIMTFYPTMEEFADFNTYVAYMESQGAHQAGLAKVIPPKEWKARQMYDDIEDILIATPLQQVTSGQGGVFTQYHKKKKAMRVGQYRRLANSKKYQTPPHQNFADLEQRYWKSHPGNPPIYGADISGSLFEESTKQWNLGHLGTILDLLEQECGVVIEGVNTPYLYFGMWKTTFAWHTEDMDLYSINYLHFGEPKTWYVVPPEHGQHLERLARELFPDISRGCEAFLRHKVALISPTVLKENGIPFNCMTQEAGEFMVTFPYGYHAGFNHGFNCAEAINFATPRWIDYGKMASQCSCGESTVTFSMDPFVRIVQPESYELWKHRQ
Method: as §1, §2

[3] = target: T3, KDM6B (Homo sapiens, UniProt O15054); experiment: MALDI MS activity assay, recombinant KDM6B catalytic domain; conditions: KDM6B 2 μM, peptide 10 μM, 1 h, 37 °C, 2OG 100 μM, ascorbate 100 μM, Fe(II) 10 μM, 50 mM HEPES pH 7.5, 150 mM NaCl; MALDI-TOF MS, −14 Da shift
T3 construct: His6 (N); made in house; host or cells: Escherichia coli
T3 sequence (O15054 1141-1590 limits assumed): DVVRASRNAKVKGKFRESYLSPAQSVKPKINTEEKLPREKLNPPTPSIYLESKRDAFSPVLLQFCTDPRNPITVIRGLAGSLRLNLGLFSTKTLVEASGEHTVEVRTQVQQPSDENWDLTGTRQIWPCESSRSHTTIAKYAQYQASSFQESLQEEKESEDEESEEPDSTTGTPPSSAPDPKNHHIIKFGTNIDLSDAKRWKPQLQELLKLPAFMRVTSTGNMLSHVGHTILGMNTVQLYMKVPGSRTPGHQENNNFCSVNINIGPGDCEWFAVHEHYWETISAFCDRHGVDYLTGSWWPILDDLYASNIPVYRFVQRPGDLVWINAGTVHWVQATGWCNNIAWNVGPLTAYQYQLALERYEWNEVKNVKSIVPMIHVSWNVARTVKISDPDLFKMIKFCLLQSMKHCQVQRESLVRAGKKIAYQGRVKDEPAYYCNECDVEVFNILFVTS
Method: as §1
(§3) Supplementary Table 2 Assay conditions with truncated recombinant protein.
(§4) Supplementary Table 3 Assay conditions with full length Flag-tagged KDMs.

[4] = target: T4, KDM3A (Homo sapiens, UniProt Q9Y4C1); experiment: MALDI MS activity assay, recombinant KDM3A catalytic domain; conditions: KDM3A 2 μM, peptide 10 μM, 1 h, 37 °C, 2OG 100 μM, ascorbate 100 μM, Fe(II) 50 μM, 50 mM HEPES pH 7.5; MALDI-TOF MS, −14 Da shift
T4 construct: KDM3A515–1,317; His6 (N); made in house; host or cells: Sf9 cells
T4 sequence (Q9Y4C1 515-1317 limits assumed): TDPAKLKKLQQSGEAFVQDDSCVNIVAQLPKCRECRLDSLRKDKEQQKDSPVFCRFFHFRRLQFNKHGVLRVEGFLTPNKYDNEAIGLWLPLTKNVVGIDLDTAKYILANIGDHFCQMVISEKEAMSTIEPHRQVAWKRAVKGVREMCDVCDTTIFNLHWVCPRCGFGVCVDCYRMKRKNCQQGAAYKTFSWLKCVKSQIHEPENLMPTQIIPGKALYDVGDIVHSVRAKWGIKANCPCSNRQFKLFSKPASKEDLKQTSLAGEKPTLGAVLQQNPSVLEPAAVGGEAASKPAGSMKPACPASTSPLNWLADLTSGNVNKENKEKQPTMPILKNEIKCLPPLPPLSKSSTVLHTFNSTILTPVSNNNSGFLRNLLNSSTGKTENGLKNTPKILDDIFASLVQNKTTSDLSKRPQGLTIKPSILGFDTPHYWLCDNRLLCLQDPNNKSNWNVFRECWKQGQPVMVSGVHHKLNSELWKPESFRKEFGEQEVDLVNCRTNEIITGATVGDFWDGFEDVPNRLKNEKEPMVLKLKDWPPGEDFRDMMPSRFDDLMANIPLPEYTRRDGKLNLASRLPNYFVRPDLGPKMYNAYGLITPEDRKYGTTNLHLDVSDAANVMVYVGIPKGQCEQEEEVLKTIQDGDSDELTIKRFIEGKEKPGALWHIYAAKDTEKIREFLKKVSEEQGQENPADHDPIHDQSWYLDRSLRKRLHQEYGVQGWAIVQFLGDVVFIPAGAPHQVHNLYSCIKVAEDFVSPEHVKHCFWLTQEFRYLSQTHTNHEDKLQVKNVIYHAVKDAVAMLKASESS
Method: as §1, §3, §4

[5] = target: T1, KDM5C; experiment: Formaldehyde dehydrogenase-coupled demethylation assay, KDM5C; conditions: for kcat / Km: KDM5C catalytic domain, apparent, preliminary, 37 °C, mean±s.e.m., n=3; for kcat: FDH/NAD+-coupled assay; for Km: FDH/NAD+-coupled formaldehyde assay, 2OG 200 μM, Fe(II) 10 μM, ascorbate 100 μM; for kcat/KM: KDM5C, calculated from the average kcat and KM values, μM^−1 s^−1 for this quantity
Method: (§5) Formaldehyde dehydrogenase-coupled assays. Preliminary kinetic parameters were determined by detection of the formaldehyde by-product of the demethylation reaction using a FDH (formaldehyde dehydrogenase-coupled)/NAD^+-coupled assay as previously described. Assays were carried out in buffer (enzyme-dependent) with the addition of Fe(II) ammonium sulfate (10 μM), sodium ascorbate (100 μM), 2OG (200 μM), NAD^+ (500 μM), enzyme (0.2–4 μM) and FDH enzyme (0.025 U per assay, Sigma-Aldrich; total volume 30 μl) and were conducted at 37 °C in clear-bottom black 384-well plates. […] The Km and Vmax values were calculated from the reaction rate during the linear phase of formaldehyde production, as determined by the slope of the fluorescence signal recorded.

[6] = target: T4, KDM3A; experiment: Formaldehyde dehydrogenase-coupled demethylation assay, KDM3A; conditions: for kcat / Km: KDM3A catalytic domain, apparent, preliminary, 37 °C, mean±s.e.m., n=3; for kcat: FDH/NAD+-coupled assay; for Km: FDH/NAD+-coupled formaldehyde assay, 2OG 200 μM, Fe(II) 10 μM, ascorbate 100 μM, fluorescence 355/460 nm; for kcat/KM: KDM3A, calculated from the average kcat and KM values, μM^−1 s^−1 for this quantity
Method: as §5

[7] = target: T2, KDM4E; experiment: Formaldehyde dehydrogenase-coupled demethylation assay, KDM4E; conditions: for Km: FDH/NAD+-coupled formaldehyde assay, 2OG 200 μM, Fe(II) 10 μM, ascorbate 100 μM
Method: as §5

[8] = KDM4E catalytic domain, apparent, preliminary, FDH/NAD+-coupled assay, 37 °C, mean±s.e.m., n=3
[9] = KDM4E catalytic domain, apparent, preliminary, 37 °C, mean±s.e.m., n=3
[10] = KDM4E, calculated from the average kcat and KM values, μM^−1 s^−1 for this quantity

A-Kme3-TKQTARKSTGGKA [H3R2Kme3, histone H3 peptide with trimethyllysine substituted for R2]
demethylation, in words [1]: not observed to be a KDM substrate | demethylation, in words ([1]; listed as H3(1–15)R2Kme3): no demethylation activity | demethylation, in words [2]: not observed to be a KDM substrate | demethylation, in words ([2]; listed as H3(1–15)R2Kme3): no demethylation activity

A-Rme-TKQTARKSTGGKA [H3 (1–15) R2me, 'natural' histone H3 peptide monomethylated at R2]
observed arginine demethylation activity [3]: − | observed arginine demethylation activity [1]: + | observed arginine demethylation activity [2]: + | observed arginine demethylation activity [4]: −

ART-Kme3-QTARKSTGGKA [H3(1-15)K4me3, recognized histone H3 N-methylated-lysine peptide substrate for KDM5C, reference compound]
kcat [5]: 67.1±10.3 × 10^−3 s^−1 | Km [5]: 7.6 ± 2.9 µM | kcat/KM [5]: 8,800 × 10^−6

ART-Rme2a-QTARKSTGGKA [H3(1-15)K4Rme2a, histone H3 fragment with asymmetric dimethylarginine replacing methylated K4]
kcat [5]: 41.2±3.5 × 10^−3 s^−1 | Km [5]: 29 ± 0.5 µM | kcat/KM [5]: 1,420.0 × 10^−6

ART-Rme2s-QTARKSTGGKA [H3(1-15)K4Rme2s, histone H3 fragment with symmetric dimethylarginine replacing methylated K4]
kcat [5]: 4.6±0.7 × 10^−3 s^−1 | Km [5]: 21.1 ± 5.8 µM | kcat/KM [5]: 219.0 × 10^−6

ARTKQTAR-Rme2a-STGGKA (ARTKQTARRSTGGKA; asymmetric dimethylarginine at 9; C-terminal amide) [H3(1-15)K9Rme2a, histone H3 fragment with asymmetric dimethylarginine replacing methylated K9]
kcat [6]: 5.0±0.6 × 10^−3 s^−1 | Km [6]: 11.6 ± 1.4 µM | kcat/KM [6]: 430.7 × 10^−6 | kcat/KM ([7]; KDM4E): 7.04e-05 µM⁻¹ s⁻¹ | kcat [7, 8]: 4.6±0.7 × 10^−3 s^−1 | Km [7, 9]: 66 ± 5 µM | kcat/KM [7, 10]: 70.4 × 10^−6

ARTKQTAR-Rme2s-STGGKA (ARTKQTARRSTGGKA; symmetric dimethylarginine at 9; C-terminal amide) [H3(1-15)K9Rme2s, histone H3 fragment with symmetric dimethylarginine replacing methylated K9]
kcat [6]: 3.0±0.3 × 10^−3 s^−1 | Km [6]: 23.7 ± 1.9 µM | kcat/KM [6]: 126.5 × 10^−6 | kcat/KM ([7]; KDM4E): 8.59e-05 µM⁻¹ s⁻¹ | kcat [7, 8]: 8.7±0.3 × 10^−3 s^−1 | Km [7, 9]: 101 ± 11 µM | kcat/KM [7, 10]: 85.9 × 10^−6

ARTKQTAR-Rme-STGGKA (ARTKQTARRSTGGKA; monomethylarginine at 9; C-terminal amide) [H3(1-15)K9Rme, histone H3 fragment with monomethylarginine replacing methylated K9]
kcat [6]: 11.0±1.2 × 10^−3 s^−1 | Km [6]: 12.1 ± 3.1 µM | kcat/KM [6]: 907.6 × 10^−6 | kcat [7, 8]: 2.7±0.2 × 10^−3 s^−1 | Km [7, 9]: 169 ± 35.9 µM | kcat ([7]; KDM4E, FDH-coupled assay): 0.0027 ± 0.0002 s⁻¹ | kcat/KM [7, 10]: 15.9 × 10^−6

KQLATKAA-Rme2a-KSAPAT [H3 (18–32) R26me2a, 'natural' histone H3 peptide asymmetrically dimethylated at R26]
observed arginine demethylation activity [3]: − | observed arginine demethylation activity [1]: − | observed arginine demethylation activity [2]: + | observed arginine demethylation activity [4]: −

KQLATKAA-Rme-KSAPAT [H3 (18–32) R26me, 'natural' histone H3 peptide monomethylated at R26]
observed arginine demethylation activity [3]: − | observed arginine demethylation activity [1]: − | observed arginine demethylation activity [2]: + | observed arginine demethylation activity [4]: −

SG-Rme2a-GKGGKGLGKGGAK [H4R3me2a]
demethylation, in words [1]: low levels of demethylation | demethylation, in words [2]: low levels of demethylation
